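Protocol summary: plate cells (96-well), add compound at 5 concentrations, incubate 48 h, interpolate endpoints linearly. TGI: total growth inhibition.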
Experiments:
Test in all cases: NCI-60 cell line screen, 48 h
786-0 renal = tested on: 786-0 renal
A498 renal = tested on: A498 renal
A549 NSCLC = tested on: A549 NSCLC
ACHN renal = tested on: ACHN renal
BT-549 breast = tested on: BT-549 breast
CAKI-1 renal = tested on: CAKI-1 renal
CCRF-CEM leukemia = tested on: CCRF-CEM leukemia
COLO 205 colon = tested on: COLO 205 colon
DU-145 prostate = tested on: DU-145 prostate
EKVX NSCLC = tested on: EKVX NSCLC
HCC-2998 colon = tested on: HCC-2998 colon
HCT-116 colon = tested on: HCT-116 colon
HCT-15 colon = tested on: HCT-15 colon
HL-60(TB) leukemia = tested on: HL-60(TB) leukemia
HOP-62 NSCLC = tested on: HOP-62 NSCLC
HS 578T breast = tested on: HS 578T breast
HT29 colon = tested on: HT29 colon
K-562 leukemia = tested on: K-562 leukemia
KM12 colon = tested on: KM12 colon
LOX IMVI melanoma = tested on: LOX IMVI melanoma
M14 melanoma = tested on: M14 melanoma
MALME-3M melanoma = tested on: MALME-3M melanoma
MCF7 breast = tested on: MCF7 breast
MDA-MB-231 breast = tested on: MDA-MB-231 breast
MDA-MB-435 = tested on: MDA-MB-435
MDA-N = tested on: MDA-N
MOLT-4 leukemia = tested on: MOLT-4 leukemia
NCI-H226 lung = tested on: NCI-H226 lung
NCI-H23 lung = tested on: NCI-H23 lung
NCI-H460 lung = tested on: NCI-H460 lung
NCI-H522 lung = tested on: NCI-H522 lung
OVCAR-3 ovarian = tested on: OVCAR-3 ovarian
OVCAR-4 ovarian = tested on: OVCAR-4 ovarian
OVCAR-5 ovarian = tested on: OVCAR-5 ovarian
OVCAR-8 ovarian = tested on: OVCAR-8 ovarian
PC-3 prostate = tested on: PC-3 prostate
RPMI-8226 leukemia = tested on: RPMI-8226 leukemia
SF-268 CNS = tested on: SF-268 CNS
SF-295 CNS = tested on: SF-295 CNS
SF-539 CNS = tested on: SF-539 CNS
SK-MEL-2 melanoma = tested on: SK-MEL-2 melanoma
SK-MEL-28 melanoma = tested on: SK-MEL-28 melanoma
SK-MEL-5 melanoma = tested on: SK-MEL-5 melanoma
SK-OV-3 ovarian = tested on: SK-OV-3 ovarian
SN12C renal = tested on: SN12C renal
SNB-19 CNS = tested on: SNB-19 CNS
SNB-75 CNS = tested on: SNB-75 CNS
SR leukemia = tested on: SR leukemia
SW-620 colon = tested on: SW-620 colon
T-47D breast = tested on: T-47D breast
TK-10 renal = tested on: TK-10 renal
U251 CNS = tested on: U251 CNS
UACC-257 melanoma = tested on: UACC-257 melanoma
UACC-62 melanoma = tested on: UACC-62 melanoma
HOP-92 NSCLC = tested on: HOP-92 NSCLC
IGROV1 ovarian = tested on: IGROV1 ovarian
RXF 393 renal = tested on: RXF 393 renal
UO-31 renal = tested on: UO-31 renal

Measured: TGI

Cc1cccc(NC(=O)/C=C/c2ccccc2)c1C
not listed: HOP-92 NSCLC | IGROV1 ovarian | RXF 393 renal | UO-31 renal
> 100 µM: all other assays above

C=CCNC(=O)N1CC(C)C(=O)Nc2ccccc21 (stereo not given)
not listed: SNB-75 CNS | UACC-62 melanoma
> 100 µM: all other assays above

Source: PubChem BioAssay (NCI)
